Test results taken from patent US20220089568A1 (Janssen Biotech, Inc., priority 2019, published 2022).
pEC50: −log10 of the molar value.

Experiments:
human DHODH = molecular target: T1, human DHODH (Homo sapiens, UniProt Q02127); assay: DHODH Enzymatic Assay; assay type: biochemical; settings: purified human DHODH; DCIP absorbance, end-point mode
T1 construct: purchased Proteros PR-0044
Description: To detect DHODH enzyme activities, dichloroindophenol (DCIP) is added as the final electron acceptor in the assay. DCIP can accept electrons from the reduced coenzyme Q generated in the assay, or from dihydroorotate (DHO) via FMN by binding presumably to the ubiquinone pocket. […] The assay buffer contained […], pH 7.5, 150 mM NaCl, 0.5 mM EDTA, and 0.1% Triton X-100 in MilliQ water. Substrate consisting of 20 mM DHO, 5 mM CoQ6, and 1 mM DCIP in assay buffer, initiates the reaction. […] Absorbance measurements were obtained using the BMG Phera Star plate-reading spectrophotomer. Purified human DHODH was purchased from Proteros (cat. No. PR-0044). Chemicals were purchased from Sigma-Aldrich, Teknova, and Avanti Polar Lipids. Liquid handling was performed using Labcyte Echo and Formulatrix Tempest.

MOLM-13 cells = assay: MOLM-13 Cellular Assay; assay type: cell-based; settings: Homo sapiens, 72 hours exposure, cell viability by CellTiter-Glo
Description: The day prior to assay set-up, cells were pelleted, resuspended in fresh media, counted, and cells were plated at 0.4×10^6 cell/mL in a T150 flask. […] Cells were exposed to different concentrations of test compounds at 37° C., 5% CO2 for 72 hours immediately after seeding.

T1 sequence (Q02127 whole entry): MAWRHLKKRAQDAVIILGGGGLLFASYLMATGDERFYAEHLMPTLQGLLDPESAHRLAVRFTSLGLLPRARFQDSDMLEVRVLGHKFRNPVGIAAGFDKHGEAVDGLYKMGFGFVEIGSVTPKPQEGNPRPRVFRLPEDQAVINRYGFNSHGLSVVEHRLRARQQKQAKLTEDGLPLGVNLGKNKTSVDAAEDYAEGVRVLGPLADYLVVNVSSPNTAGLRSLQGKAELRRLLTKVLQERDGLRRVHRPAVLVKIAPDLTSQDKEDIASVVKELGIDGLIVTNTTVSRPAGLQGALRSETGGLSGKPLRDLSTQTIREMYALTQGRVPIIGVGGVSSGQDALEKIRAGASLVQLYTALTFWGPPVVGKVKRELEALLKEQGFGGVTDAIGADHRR

Compound | pEC50 (human DHODH) | pEC50 (MOLM-13 cells)
CCn1c(CO)nn(-c2nc(OC3CC(F)(F)C3(F)F)c(C(=O)Nc3c(F)cccc3Cl)cc2F)c1=O (racemic) [Example 8, Racemic-N-(2-Chloro-6-fluorophenyl)-6-(4-ethyl-3-(hydroxymethyl)-5-oxo-4,5-dihydro-1H-1,2,4-triazol-1-yl)-5-fluoro-2-(2,2,3,3-tetrafluorocyclobutoxy)nicotinamide] | 7.66 | 7.80
CCn1c(CO)nn(-c2nc(OC3CCOC3)c(C(=O)Nc3c(F)cccc3Cl)cc2F)c1=O (racemic) [Example 9, Racemic-N-(2-Chloro-6-fluorophenyl)-6-(4-ethyl-3-(hydroxymethyl)-5-oxo-4,5-dihydro-1H-1,2,4-triazol-1-yl)-5-fluoro-2-((tetrahydrofuran-3-yl)oxy)nicotinamide] | 7.50 | 7.73
CCn1c(C(C)O)nn(-c2nc(O[C@@H](C)C(F)(F)F)c(C(=O)Nc3c(C)n[nH]c3C(F)(F)F)cc2F)c1=O (mixture of isomers) [Example 127, (Racemic)-6-[4-Ethyl-3-(1-hydroxyethyl)-5-oxo-1,2,4-triazol-1-yl]-5-fluoro-N-[3-methyl-5-(trifluoromethyl)-1H-pyrazol-4-yl]-2-(2,2,2-trifluoro-1-methyl-ethoxy)pyridine-3-carboxamide] | 8.37 | 9.03
CCn1c(CO)nn(-c2nc(O[C@@H](C)C(F)(F)F)c(C(=O)Nc3c(F)cccc3Cl)cc2F)c1=O [Example 1, (S)-N-(2-Chloro-6-fluorophenyl)-6-(4-ethyl-3-(hydroxymethyl)-5-oxo-4,5-dihydro-1H-1,2,4-triazol-1-yl)-5-fluoro-2-((1,1,1-trifluoropropan-2-yl)oxy)nicotinamide] | 9.63 | 9.81
CCn1c(CO)nn(-c2nc(O[C@@H](C)C(F)(F)F)c(C(=O)Nc3ccccc3F)cc2F)c1=O [Example 2, (S)-6-(4-Ethyl-3-(hydroxymethyl)-5-oxo-4,5-dihydro-1H-1,2,4-triazol-1-yl)-5-fluoro-N-(2-fluorophenyl)-2-((1,1,1-trifluoropropan-2-yl)oxy)nicotinamide] | 8.21 | 8.28
CCn1c(CF)nn(-c2nc(O[C@@H](C)C(F)(F)F)c(C(=O)Nc3c(F)cccc3Cl)cc2F)c1=O [Example 3, (S)-N-(2-Chloro-6-fluorophenyl)-6-(4-ethyl-3-(fluoromethyl)-5-oxo-4,5-dihydro-1H-1,2,4-triazol-1-yl)-5-fluoro-2-((1,1,1-trifluoropropan-2-yl)oxy)nicotinamide] | 9.61 | 10.43
CCn1c(CO)nn(-c2nc(O[C@@H](C)C(F)(F)F)c(C(=O)Nc3cccnc3Cl)cc2F)c1=O [Example 4, (S)-N-(2-Chloropyridin-3-yl)-6-(4-ethyl-3-(hydroxymethyl)-5-oxo-4,5-dihydro-1H-1,2,4-triazol-1-yl)-5-fluoro-2-((1,1,1-trifluoropropan-2-yl)oxy)nicotinamide] | 8.55 | 8.19
CCn1c(CO)nn(-c2nc(O[C@@H](C)C(F)(F)F)c(C(=O)Nc3c(C)ccnc3Cl)cc2F)c1=O [Example 5, (S)-N-(2-Chloro-4-methylpyridin-3-yl)-6-(4-ethyl-3-(hydroxymethyl)-5-oxo-4,5-dihydro-1H-1,2,4-triazol-1-yl)-5-fluoro-2-((1,1,1-trifluoropropan-2-yl)oxy)nicotinamide] | 8.92 | 8.70
CCn1c(CCl)nn(-c2nc(O[C@@H](C)C(F)(F)F)c(C(=O)Nc3c(F)cccc3Cl)cc2F)c1=O [Example 6, (S)-N-(2-Chloro-6-fluorophenyl)-6-(3-(chloromethyl)-4-ethyl-5-oxo-4,5-dihydro-1H-1,2,4-triazol-1-yl)-5-fluoro-2-((1,1,1-trifluoropropan-2-yl)oxy)nicotinamide] | 9.43 | 8.83
CCn1c(CO)nn(-c2nc(OC(C)C)c(C(=O)Nc3c(F)cccc3Cl)cc2F)c1=O [Example 7, N-(2-Chloro-6-fluorophenyl)-6-(4-ethyl-3-(hydroxymethyl)-5-oxo-4,5-dihydro-1H-1,2,4-triazol-1-yl)-5-fluoro-2-isopropoxynicotinamide] | 9.30 | 9.66
